Source: patent US20120232070A1, “Use of Indole Derivatives as Nurr-1 Activators for the Application Thereof as a Medicament for the Treatment of Parkinson's Disease” (Laboratoires Fournier SA, priority 2009, published 2012)

How the values were obtained:
[1] = target: hNurr1_RXRγFL (NURR1/RXRγ heterodimer) (Homo sapiens, UniProt P43354+P48443); experiment: Transactivation assay in Cos-7 cells, NURR-1-Gal4 / RXRγ, luciferase reporter; type: cell-based; details: for Emax: COS-7, read-out: hNurr1_RXRγFL Eff (%), efficacy in % relative to the reference XCT0135908 at 2·10^−5 M (=100%); for EC50: Cos-7 cells, overnight incubation
Procedure: (§1) First, the capacity of the compounds according to the invention for acting as an activator of the heterodimers formed by the NURR-1 nuclear receptor and the RXR nuclear receptors was measured by an in vitro assay.
(§2) A transactivation assay was used as a primary screening assay. Cos-7 cells were co-transfected with a plasmid expressing a chimera of the human receptor NURR-1-Gal4, a plasmid expressing the human receptor RXR (RXRα or RXRγ receptor) and a reporter plasmid 5Gal4pGL3-TK-Luc. The transfections were performed by means of a chemical agent (Jet PEI).
(§3) The transfected cells were distributed in 384-well plates and left resting for 24 hours.
(§4) After 24 hours, the culture medium was changed. The products according to the invention were added (final concentration between 10^−4 and 3·10^−10 M) to the culture medium. After overnight incubation, luciferase expression was measured after addition of “SteadyGlo” according to the manufacturer's instructions (Promega).
(§5) 4-[[6-Methyl-2-phenyl-5-(2-prop enyl)-4-pyrimidinyl]amino]-benzoic acid (called XCT0135908, which was described in the article by Wallen-Mackenzie et al. published in Genes & Development 17, pages 3036-3047) at 2·10^−5 M (RXR agonist) was used as reference.
(§6) The levels of induction (designated by “efficiency”) were calculated relative to the baseline activity of each heterodimer. The results were expressed as a percentage of the level of induction relative to the level of induction obtained with the reference (the level of induction of the reference is arbitrarily taken to be 100%).

[2] = target: hNurr1_RXRαFL (NURR1/RXRα heterodimer) (Homo sapiens, UniProt P19793+P43354); experiment: Transactivation assay in Cos-7 cells, NURR-1-Gal4 / RXRα, luciferase reporter; type: cell-based; details: for Emax: COS-7, read-out: hNurr1_RXRαFL Eff (%), efficacy in % relative to the reference XCT0135908 at 2·10^−5 M (=100%); for EC50: Cos-7 cells, overnight incubation; for hNurr1_RXRαFL Eff (%): efficacy in % relative to the reference XCT0135908 at 2·10^−5 M (=100%)
Procedure: as §1, §2, §3, §4, §5, §6

hNurr1_RXRαFL (NURR1/RXRα heterodimer), sequence (P19793 whole entry, the tested form may be a part): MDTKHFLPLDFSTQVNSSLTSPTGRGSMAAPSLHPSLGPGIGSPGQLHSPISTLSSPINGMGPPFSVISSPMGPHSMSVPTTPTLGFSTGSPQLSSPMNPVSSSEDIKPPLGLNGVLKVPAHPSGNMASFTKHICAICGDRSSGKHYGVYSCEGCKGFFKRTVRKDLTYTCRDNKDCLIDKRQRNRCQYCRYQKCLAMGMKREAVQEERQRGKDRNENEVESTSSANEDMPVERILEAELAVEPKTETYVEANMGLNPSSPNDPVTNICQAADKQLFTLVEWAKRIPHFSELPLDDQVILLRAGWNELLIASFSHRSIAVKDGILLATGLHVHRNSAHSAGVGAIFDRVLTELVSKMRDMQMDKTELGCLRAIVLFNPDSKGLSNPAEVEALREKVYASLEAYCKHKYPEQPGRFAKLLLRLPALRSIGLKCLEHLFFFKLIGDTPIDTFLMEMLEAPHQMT
hNurr1_RXRαFL (NURR1/RXRα heterodimer), sequence (P43354 328-598): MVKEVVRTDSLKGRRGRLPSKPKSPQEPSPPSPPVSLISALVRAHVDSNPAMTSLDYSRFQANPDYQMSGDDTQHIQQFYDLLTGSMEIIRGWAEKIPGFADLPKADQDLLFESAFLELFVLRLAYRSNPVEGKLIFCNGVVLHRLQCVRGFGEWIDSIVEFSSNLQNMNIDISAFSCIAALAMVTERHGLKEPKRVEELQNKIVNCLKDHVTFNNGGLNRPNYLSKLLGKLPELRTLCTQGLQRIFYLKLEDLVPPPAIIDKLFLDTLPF
hNurr1_RXRγFL (NURR1/RXRγ heterodimer), sequence (P43354 328-598): as above
hNurr1_RXRγFL (NURR1/RXRγ heterodimer), sequence (P48443 whole entry, the tested form may be a part): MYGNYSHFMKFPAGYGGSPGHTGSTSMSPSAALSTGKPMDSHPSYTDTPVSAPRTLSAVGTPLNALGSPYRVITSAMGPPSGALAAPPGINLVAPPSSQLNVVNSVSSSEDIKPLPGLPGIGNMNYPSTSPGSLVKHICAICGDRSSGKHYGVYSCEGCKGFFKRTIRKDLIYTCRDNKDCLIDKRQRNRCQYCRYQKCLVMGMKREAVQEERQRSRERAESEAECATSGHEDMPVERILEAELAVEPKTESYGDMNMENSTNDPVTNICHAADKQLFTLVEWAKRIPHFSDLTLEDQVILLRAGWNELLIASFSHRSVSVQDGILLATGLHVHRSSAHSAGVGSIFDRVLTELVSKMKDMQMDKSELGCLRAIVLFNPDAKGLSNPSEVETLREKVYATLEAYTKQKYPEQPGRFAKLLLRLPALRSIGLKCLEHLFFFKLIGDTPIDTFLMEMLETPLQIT

| Structure (SMILES) | Emax [1] [%] | EC50 [1] [µM] | Emax [2] [%] | EC50 [2] [µM] | hNurr1_RXRαFL Eff (%) [2] [%] |
| --- | --- | --- | --- | --- | --- |
| COC(=O)c1ccc(Cc2cc3cc(C(F)(F)F)ccc3n2S(=O)(=O)c2ccc(C(C)C)cc2)cc1F [Example 1, 2-fluoro-4-[[1-[[4-(1-methylethyl)phenyl]sulfonyl]-5-(trifluoromethyl)-1H-indol-2-yl]methyl]benzoic acid, methyl ester] | 60 | 0.718 | 65 | 0.412 |  |
| CC(C)(C)c1cccc(S(=O)(=O)n2c(Cc3cccc(C(=O)O)c3)cc3cc(C(F)(F)F)ccc32)c1 [Example 8, 3-[[1-[[3-(1,1-dimethylethyl)phenyl]sulfonyl]-5-(trifluoromethyl)-1H-indol-2-yl]methyl]benzoic acid] | 74 | 0.099 | 96 | 0.101 |  |
| CC(C)(C)c1cccc(S(=O)(=O)n2c(Cc3ccc(C(=O)O)c(F)c3)cc3cc(C(F)(F)F)ccc32)c1 [Example 10, 2-fluoro-4-[[1-[[3-(1,1-dimethylethyl)phenyl]sulfonyl]-5-(trifluoromethyl)-1H-indol-2-yl]methyl]benzoic acid] | 56 | 0.943 | 63 | 0.406 |  |
| CCC(C)(C)c1ccc(S(=O)(=O)n2c(Cc3ccc(C(=O)O)cc3)cc3cc(C(F)(F)F)ccc32)cc1 [Example 12, 4-[[1-[[4-(1,1-dimethylpropyl)phenyl]sulfonyl]-5-(trifluoromethyl)-1H-indol-2-yl]methyl]benzoic acid] | 45 | 0.148 | 54 | 0.113 |  |
| COc1cccc(S(=O)(=O)n2c(Cc3ccc(C(=O)O)cc3)cc3cc(C(F)(F)F)ccc32)c1 [Example 13, 4-[[1-[(3-methoxyphenyl)sulfonyl]-5-(trifluoromethyl)-1H-indol-2-yl]methyl]benzoic acid] | 36 | 0.528 | 69 | 0.207 |  |
| CC(C)c1ccc(S(=O)(=O)n2c(Cc3csc(C(=O)O)c3)cc3cc(C(F)(F)F)ccc32)cc1 [Example 72, 4-[[1-[[4-(1-methylethyl)-phenyl]sulfonyl]-5-trifluoromethyl-1H-indol-2-yl]methyl]-thiophene-2-carboxylic acid] |  |  | 131 | 0.072 |  |
| CN1CCOc2ccc(S(=O)(=O)n3c(Cc4csc(C(=O)O)c4)cc4cc(C(F)(F)F)ccc43)cc21 [Example 74, 4-[[1-[(4-methyl-3,4-dihydro-2H-benzo[1,4]oxazin-6-yl)-sulfonyl]-5-trifluoromethyl-1H-indol-2-yl]methyl]-thiophene-2-carboxylic acid] |  |  | 150 | 0.04 |  |
| CN1CCOc2ccc(S(=O)(=O)n3c(Cc4ccc(C(=O)O)o4)cc4cc(C(F)(F)F)ccc43)cc21 [Example 75, 5-[[1-[(4-methyl-3,4-dihydro-2H-benzo[1,4]oxazin-6-yl)-sulfonyl]-5-trifluoromethyl-1H-indol-2-yl]methyl]-furan-2-carboxylic acid] |  |  | 114 | 0.066 |  |
| CN1CCOc2ccc(S(=O)(=O)n3c(Cc4cc(C(=O)O)co4)cc4cc(C(F)(F)F)ccc43)cc21 [Example 76, 5-[[1-[[4-methyl-3,4-dihydro-2H-benzo[1,4]oxazin-6-yl)-sulfonyl]-5-trifluoromethyl-1H-indol-2-yl]methyl]-furan-3-carboxylic acid] |  |  | 138 | 0.063 |  |
| O=C(O)c1cc(Cc2cc3cc(Cl)ccc3n2S(=O)(=O)c2ccc3c(c2)OCCO3)cs1 [Example 78] |  |  | 116 | 0.331 |  |
| O=C(O)c1ccc(Cc2cc3cc(Cl)ccc3n2S(=O)(=O)c2ccc3c(c2)OCCO3)o1 [Example 79, 5-[[5-chloro-1-[(2,3-dihydro-benzo[1,4]dioxin-6-yl)sulfonyl]-1H-indol-2-yl]methyl]-furan-2-carboxylic acid] |  |  | 147 | 0.724 |  |
| Cn1cc(Cc2cc3cc(C(F)(F)F)ccc3n2S(=O)(=O)c2cccc(C(C)(C)C)c2)cc1C(=O)O [Example 87, 4-[[1-[[3-(1,1-dimethylethyl)-phenyl]sulfonyl]-5-trifluoromethyl-1H-indol-2-yl]methyl]-1-methyl-pyrrol-2-yl-carboxylic acid] |  |  | 123 | 0.03 |  |
| CC(C)(C)c1cccc(S(=O)(=O)n2c(C(O)c3ccc(C(=O)O)s3)cc3cc(C(F)(F)F)ccc32)c1 (stereo not shown) [Example 91, 5-[[1-[[3-(1,1-dimethylethyl)-phenyl]sulfonyl]-5-trifluoromethyl-1H-indol-2-yl]hydroxymethyl]-thiophene-2-carboxylic acid] |  |  | 100 | 0.072 |  |
| CC(C)(C)c1cccc(S(=O)(=O)n2c(C(=O)c3ccc(C(=O)O)s3)cc3cc(C(F)(F)F)ccc32)c1 [Example 94, 5-[[1-[[3-(1,1-dimethylethyl)-phenyl]sulfonyl]-5-trifluoromethyl-1H-indol-2-yl]-carbonyl]-thiophene-2-carboxylic acid] |  |  | 106 | 1.24 |  |
| CC(C)(C)c1cccc(S(=O)(=O)n2c(C(C)(O)c3ccc(C(=O)O)s3)cc3cc(C(F)(F)F)ccc32)c1 (stereo not shown) [Example 95, 5-[1-[1-[[3-(1,1-dimethylethyl)-phenyl]sulfonyl]-5-(trifluoromethyl)-1H-indol-2-yl]-1-hydroxyethyl]-thiophene-2-carboxylic acid] |  |  | 99 | 0.209 |  |
| C=C(c1ccc(C(=O)O)s1)c1cc2cc(C(F)(F)F)ccc2n1S(=O)(=O)c1cccc(C(C)(C)C)c1 [Example 96, 5-[1-[1-[[3-(1,1-dimethylethyl)-phenyl]sulfonyl]-5-(trifluoromethyl)-1H-indol-2-yl]-1-ethenyl]-thiophene-2-carboxylic acid] |  |  | 54 | 0.339 |  |
| O=C(O)c1ccc(Cc2cc3cc(C(F)(F)F)ccc3n2S(=O)(=O)c2ccc(C(=O)N3CCOCC3)cc2)cc1 [Example 129, 4-[[1-[4-(morpholine-4-carbonyl)benzenesulfonyl]-5-(trifluoromethyl)-1H-indol-2-yl]methyl]benzoic acid] |  |  | 41 | 0.804 |  |
| CC(C)(C)c1cccc(S(=O)(=O)n2c(Cc3cc(C(=O)O)ccc3F)cc3cc(C(F)(F)F)ccc32)c1 [Example 199, 3-[[1-[[3-(1,1-dimethylethyl)-phenyl]sulfonyl]-5-trifluoromethyl-1H-indol-2-yl]methyl]-4-fluorobenzoic acid] |  |  | 118 | 0.022 |  |
| CC(C)(C)c1cccc(S(=O)(=O)n2c(Cc3cc(F)cc(C(=O)O)c3)cc3cc(C(F)(F)F)ccc32)c1 [Example 200, 3-[[1-[[3-(1,1-dimethylethyl)-phenyl]sulfonyl]-5-trifluoromethyl-1H-indol-2-yl]methyl]-5-fluorobenzoic acid] |  |  | 93 |  |  |
| CC(C)(C)c1cccc(S(=O)(=O)n2c(Cc3cc(F)cc(C(=O)O)c3)cc3cc(C(F)(F)F)ccc32)c1 [Example 201, 3-[[1-[[3-(1,1-dimethylethyl)-phenyl]sulfonyl]-5-trifluoromethyl-1H-indol-2-yl]methyl]-5-fluorobenzoic acid] |  |  |  |  | 96 |
| COc1ccc(Cc2cc3cc(C(F)(F)F)ccc3n2S(=O)(=O)c2cccc(C(C)(C)C)c2)cc1C(=O)O [Example 202, 3-[[1-[[3-(1,1-dimethylethyl)-phenyl]sulfonyl]-5-trifluoromethyl-1H-indol-2-yl]methyl]-6-methoxybenzoic acid] |  |  | 104 | 0.019 |  |
| CC(C)(C)c1cccc(S(=O)(=O)n2c(Cc3cc(C(=O)O)c(F)cc3Cl)cc3cc(C(F)(F)F)ccc32)c1 [Example 203, 3-[[1-[[3-(1,1-dimethylethyl)-phenyl]sulfonyl]-5-trifluoromethyl-M-indol-2-yl]methyl]-4-chloro-6-fluorobenzoic acid] |  |  |  | 0.085 | 83 |
| CC(C)(C)c1cccc(S(=O)(=O)n2c(Cc3ccc(C(=O)O)cc3Cl)cc3cc(C(F)(F)F)ccc32)c1 [Example 205, 4-[[1-[[3-(1,1-dimethylethyl)-phenyl]sulfonyl]-5-trifluoromethyl-1H-indol-2-yl]methyl]-3-chlorobenzoic acid] |  |  | 75 | 0.098 |  |
| COc1c(Cc2cc3cc(C(F)(F)F)ccc3n2S(=O)(=O)c2cccc(C(C)(C)C)c2)cccc1C(=O)O [Example 207, 3-[[1-[[3-(1,1-dimethylethyl)-phenyl]sulfonyl]-5-trifluoromethyl-1H-indol-2-yl]methyl]-2-methoxybenzoic acid] |  |  | 48 | 0.513 |  |
| COc1ccc(C(=O)O)cc1Cc1cc2cc(C(F)(F)F)ccc2n1S(=O)(=O)c1cccc(C(C)(C)C)c1 [Example 208, 3-[[1-[[3-(1,1-dimethylethyl)-phenyl]sulfonyl]-5-trifluoromethyl-1H-indol-2-yl]methyl]-4-methoxybenzoic acid] |  |  | 31 | 0.24 |  |
